As a reminder, the IC50 is the point on the concentration scale where inhibition reaches its midpoint.

Molecules are shown by their SMILES. Active and inactive are the calls of the source. No rule for the calls is given here. Some results are limits rather than exact numbers.

Drawing on PubChem BioAssay AID1117322, this text covers IC50 for seven compounds.

In the assay the test system is RKO cells viability, CellTiter-Glo ATP luminescence. Nature of the assay: RKO cell viability reduction, dose response, CellTiter-Glo luminescence (AID 1117322). A general note: Cellular ATP, detected with luciferase, serves as a proxy for viable cell number.

In the case of `OCCN1CCN(CC/C=C2/c3ccccc3Sc3ccc(C(F)(F)F)cc32)CC1`, the IC50 was 0.318 µM.

Take `CC(=O)[O][Hg][c]1ccccc1`: the IC50 is 1.2 µM.

Consider `CCCCCCCCCCCCCC[N+](C)(C)C`, for which the IC50 is 0.147 µM.

As for `O=Cc1ccc(O)c(O)c1O`, the IC50 is 6.23 µM (inactive).

Regarding `O=C1[O][Bi][O]c2ccccc21`, the IC50 was > 20 µM (inactive).

With `O=C(O)C1(C(=O)O)CCC1.[NH2-].[NH2-].[Pt+2]`, the IC50 was > 20 µM (inactive).

With `CC(C)n1c(/C=C/[C@@H](O)C[C@@H](O)CC(=O)O)c(-c2ccc(F)cc2)c2ccccc21`, the IC50 was 19.2 µM (inactive).
